Source: patent publication US11214803B2, “Modulators of YAP1 expression” (Ionis Pharmaceuticals, Inc., priority 2019, dated 2022)
Strand notation (5' to 3'): a small letter for the sugar, then the base; units joined by * are phosphorothioate-linked, units joined directly phosphodiester-linked; [ ] holds rarer units or linkages, { } end groups; capitals alone tell only the bases. k = constrained ethyl (cEt); [5mC] = 5-methylcytosine; d = 2'-deoxy (DNA)

Columns and labels:
Yap1 mRNA [1] = assay: Antisense inhibition of human Yap1 in A-431 cells by cEt gapmers, single dose (Example 2, RTS4814); assay type: cell-based
Experimental: Modified oligonucleotides were designed to target a Yap1 nucleic acid and were tested for their effect on Yap1 mRNA level in vitro. The modified oligonucleotides were tested in a series of experiments that had similar culture conditions. Cultured A-431 cells at a density of 5,000 cells per well were treated using free uptake with 2,000 nM of modified oligonucleotide. After a treatment period of approximately 48 hours, RNA was isolated from the cells and Yap1 mRNA levels were measured by quantitative real-time RTPCR. Human primer probe set RTS4814 was used to measure mRNA levels. Yap1 mRNA levels were normalized to total RNA content, as measured by RIBOGREEN®. Results are presented in the tables below as percent control of the amount of Yap1 mRNA relative to untreated control cells (% UTC). The modified oligonucleotides with percent control values marked with an asterisk (*) target the amplicon region of the primer probe set. Additional assays may be used to measure the potency and efficacy of the modified oligonucleotides targeting the amplicon region.
The newly designed modified oligonucleotides in the Tables below were designed as 3-10-3 cEt gapmers. The gapmers are 16 nucleosides in length, wherein the central gap segment comprises of ten 2′-deoxynucleosides and is flanked by wing segments on the 5′ direction and the 3′ direction comprising three nucleosides each. Each nucleoside in the 5′ wing segment and each nucleoside in the 3′ wing segment has a cEt sugar modification. The internucleoside linkages throughout each gapmer are phosphorothioate (P═S) linkages. All cytosine residues throughout each gapmer are 5-methylcytosines.
“Start site” indicates the 5′-most nucleoside to which the gapmer is targeted in the human gene sequence. “Stop site” indicates the 3′-most nucleoside to which the gapmer is targeted human gene sequence. […] Activity ofthe modified oligonucleotide may be defined in a different experiment.

Yap1 mRNA [2] = assay: Dose-dependent inhibition of human Yap1 in A-431 cells (Example 8, 10,000 cells per well, RTS4814); assay type: cell-based; settings: free uptake, approximately 48 hours, RTS4814; for Yap1 mRNA, % UTC: A-431 cells, 10,000 cells per well; for IC50: A-431 cells, linear regression on log/linear plot
Outline: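 Yap1 mRNA, normalized to RIBOGREEN total RNA and expressed as % untreated control, was read with RTS4814 about 48 h after free-uptake oligonucleotide treatment of A-431 cells at 10,000 cells/well. IC50 derived by linear regression of log/linear data.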

[3] = Table 22, Yap1 mRNA as percent of untreated control, 3-10-3 cEt gapmers, single dose
[4] = Table 18, A-431 cells, 5,000 cells per well, free uptake, 2,000 nM modified oligonucleotide, approx. 48 hours, RTS4814, normalized to RIBOGREEN, Yap1 mRNA as percent of untreated control
[5] = Table 20, Yap1 mRNA, percent of untreated control, 3-10-3 cEt gapmers targeting SEQ ID NO.: 1 and 2

| Substance | Yap1 mRNA, % UTC (Yap1 mRNA [2]; 31.3 nM) [% UTC] | Yap1 mRNA, % UTC (Yap1 mRNA [2]; 125.0 nM) [% UTC] | Yap1 mRNA, % UTC (Yap1 mRNA [2]; 500.0 nM) [% UTC] | Yap1 mRNA, % UTC (Yap1 mRNA [2]; 2000.00 nM) [% UTC] | IC50 (Yap1 mRNA [2]) [nM] | also measured |
| --- | --- | --- | --- | --- | --- | --- |
| 1075145 (antisense kT*k[5mC]*k[5mC]*d[5mC]*dA*dA*dA*dA*dG*dG*dA*dG*dT*kA*kG*k[5mC]) [Compound 1075145] |  |  |  |  |  | YAP1 (% UTC) (Yap1 mRNA [1]; Table 23, Yap1 mRNA as percent of untreated control, 3-10-3 cEt gapmers, single dose): 58 % UTC |
| 1075240 (antisense kT*kA*kA*dA*d[5mC]*dG*dG*dT*dT*dT*dA*dT*dA*kT*kT*k[5mC]) [Compound 1075240] |  |  |  |  |  | YAP1 (% UTC) (Yap1 mRNA [1]; [3]): 16 % UTC |
| 1076100 (kA*kA*kT*dA*dA*dG*dG*dG*dA*d[5mC]*dT*dA*d[5mC]*kT*kT*kT; antisense) [Compound 1076100] |  |  |  |  |  | YAP1 (% UTC) (Yap1 mRNA [1]; [4]): 65 % UTC |
| 1076296 (kT*kA*kT*dA*dA*dA*dG*dA*d[5mC]*d[5mC]*d[5mC]*dA*dA*kT*kG*k[5mC]; antisense) [Compound 1076296] |  |  |  |  |  | YAP1 (% UTC) (Yap1 mRNA [1]; [3]): 68 % UTC |
| 1076549 (antisense kG*kT*kG*d[5mC]*dA*dA*dA*dA*dT*dA*d[5mC]*d[5mC]*dT*kT*kT*kG) [Compound 1076549] |  |  |  |  |  | YAP1 (% UTC) (Yap1 mRNA [1]; Table 19, A-431 cells, 5,000 cells per well, free uptake, 2,000 nM modified oligonucleotide, approx. 48 hours, RTS4814, normalized to RIBOGREEN, Yap1 mRNA as percent of untreated control): 8 % UTC |
| 1074468 (k[5mC]*k[5mC]*kA*d[5mC]*d[5mC]*dG*dA*d[5mC]*d[5mC]*d[5mC]*dT*dG*d[5mC]*k[5mC]*kA*kA; antisense) [Compound 1074468] |  |  |  |  |  | YAP1 (% UTC) (Yap1 mRNA [1]; [4]): 34 % UTC |
| 1075494 (antisense kT*k[5mC]*kT*d[5mC]*dA*dA*d[5mC]*dA*dA*dT*dT*dT*dG*k[5mC]*kT*kA) [Compound 1075494] |  |  |  |  |  | YAP1 (% UTC) (Yap1 mRNA [1]; [5]): 47 % UTC |
| 1075400 (antisense kT*kA*kG*d[5mC]*dA*dA*dT*dA*dG*dT*d[5mC]*dA*dG*kG*kT*kA) [Compound 1075400] |  |  |  |  |  | YAP1 (% UTC) (Yap1 mRNA [1]; [3]): 11 % UTC |
| 1074215 (antisense kG*k[5mC]*kT*d[5mC]*d[5mC]*dG*dG*d[5mC]*dG*dG*d[5mC]*dT*dT*kG*kA*kA) [Compound 1074215] |  |  |  |  |  | YAP1 (% UTC) (Yap1 mRNA [1]; Table 21, Yap1 mRNA, percent of untreated control, 3-10-3 cEt gapmers targeting SEQ ID NO.: 1 and 2): 77 % UTC |
| 1075216 (kT*kA*kT*dT*dT*dT*dA*d[5mC]*dA*d[5mC]*dG*dA*dA*k[5mC]*kT*kA; antisense) [compound 1075216] |  |  |  |  |  | YAP1 (% UTC) (Yap1 mRNA [1]; Yap1 mRNA as percent of untreated control, A-431 cells, 3-10-3 cEt gapmers targeting SEQ ID NO.: 1, and 2, Table 30): 55 % UTC |
| 1074353 (antisense kG*kA*k[5mC]*dA*d[5mC]*dT*dG*dT*dA*dG*d[5mC]*dT*dG*k[5mC]*kT*k[5mC]) [compound 1074353] |  |  |  |  |  | YAP1 (% UTC) (Yap1 mRNA [1]; Yap1 mRNA as percent of untreated control, A-431 cells, 3-10-3 cEt gapmers targeting SEQ ID NO.: 1, and 2, Table 31): 17 % UTC |
| 1075275 (antisense k[5mC]*kT*kA*dG*dA*dA*dA*dG*dG*d[5mC]*d[5mC]*dA*dT*kG*kT*kA) [Compound 1075275] |  |  |  |  |  | YAP1 (% UTC) (Yap1 mRNA [1]; Table 25, Yap1 mRNA as percent of untreated control, 3-10-3 cEt gapmers targeting SEQ ID NO.: 1, and 2): 76 % UTC |
| 716430 (kT*kA*kA*d[5mC]*dT*dG*dG*dG*d[5mC]*dA*dA*dA*dA*kG*kG*kA; antisense) [Compound 716430] |  |  |  |  |  | YAP1 (% UTC) (Yap1 mRNA [1]; A-431 cells, 5,000 cells per well, free uptake, 2,000 nM modified oligonucleotide, approx. 48 hours, RTS4814, normalized to RIBOGREEN, Table 4, asterisk (*) = targets amplicon region of primer probe set): 28 % UTC |
| 1075718 (k[5mC]*k[5mC]*kA*d[5mC]*dT*dA*dA*dA*dA*d[5mC]*d[5mC]*dA*dA*kG*kT*kT; antisense) [Compound 1075718] |  |  |  |  |  | YAP1 (% UTC) (Yap1 mRNA [1]; [5]): 48 % UTC |
| 1074930 (antisense k[5mC]*kT*kA*dT*dA*d[5mC]*dA*dA*d[5mC]*dA*dG*dG*d[5mC]*k[5mC]*kT*kG) [compound 1074930] |  |  |  |  |  | YAP1 (% UTC) (Yap1 mRNA [1]; Table 32, Yap1 mRNA, percent of untreated control, 3-10-3 cEt gapmers targeting SEQ ID NO.: 1, and 2): 84 % UTC |
| 1075243 (k[5mC]*kT*kT*dA*dG*dT*dA*dA*dG*dA*dA*dT*dT*kG*kT*k[5mC]; antisense) [compound 1075243] | 50 | 18 | 7 | 5 | < 20 |  |
| 1076386 (antisense kA*kG*kT*dT*dA*dT*dA*dA*d[5mC]*dA*dG*dT*dG*kT*kA*kA) [compound 1076386] | 61 | 30 | 11 | 5 | 40 |  |
| 1075115 (kG*kT*kA*dT*dA*dG*d[5mC]*d[5mC]*dT*dT*dA*dT*dT*k[5mC]*kT*kT; antisense) [compound 1075115] | 57 | 41 | 17 | 9 | 100 |  |
| 1074407 (kT*kA*kA*dA*dG*dT*dA*dT*d[5mC]*dT*dT*dG*d[5mC]*kT*kG*kG; antisense) [compound 1074407] | 55 | 27 | 13 | 8 | < 20 |  |
| 1076427 (k[5mC]*kA*kA*dA*dT*dT*dT*dA*d[5mC]*dT*dG*dA*dT*k[5mC]*kT*k[5mC]; antisense) [compound 1076427] | 75 | 30 | 9 | 4 | 100 |  |
| 1074537 (k[5mC]*kA*kG*dT*dA*dA*dT*dA*dG*d[5mC]*dT*d[5mC]*dT*kT*kT*k[5mC]; antisense) [compound 1074537] | 47 | 21 | 6 | 4 | < 20 |  |
| 1076458 (k[5mC]*kT*kT*dA*dA*dT*dT*dA*dG*d[5mC]*d[5mC]*dT*d[5mC]*kA*kG*kT; antisense) [compound 1076458] | 88 | 52 | 23 | 10 | 200 |  |
| 1076326 (kG*k[5mC]*kT*dA*dA*dT*dA*dA*dT*dG*dG*dA*dA*kG*kA*kG; antisense) [compound 1076326] | 53 | 20 | 6 | 3 | < 20 |  |
| 1076256 (kT*kT*kA*dT*dT*dT*dA*dG*dG*d[5mC]*d[5mC]*d[5mC]*d[5mC]*kA*kT*kA; antisense) [compound 1076256] | 68 | 33 | 11 | 6 | 100 |  |
| 1076330 (antisense kG*kA*kA*dT*dT*dA*dT*dA*d[5mC]*dT*dG*dG*d[5mC]*kT*kA*k[5mC]) [compound 1076330] | 57 | 31 | 9 | 4 | 40 |  |
| 1074629 (DNA kG*kA*kG*dA*dT*dT*dT*dT*dA*dT*dG*d[5mC]*d[5mC]*kT*kG*kT; antisense) [compound 1074629] | 21 | 5 | 3 | 3 | < 20 |  |
| 1075808 (kG*k[5mC]*kA*dA*dT*dA*dG*dA*dG*dT*dA*dA*d[5mC]*k[5mC]*kA*kG; antisense) [compound 1075808] | 38 | 9 | 4 | 4 | < 20 |  |
| 1074762 (kG*k[5mC]*kT*dA*d[5mC]*d[5mC]*d[5mC]*dA*dA*dT*dA*d[5mC]*dA*kA*k[5mC]*k[5mC]; antisense) [compound 1074762] | 74 | 32 | 14 | 8 | 100 |  |
| 1076489 (k[5mC]*kA*kA*dA*dA*dT*dA*dG*dG*dT*dG*dA*dG*kT*k[5mC]*kA; antisense) [compound 1076489] | 43 | 13 | 4 | 3 | < 20 |  |
